# Where a SMILES comes first, the peptide text is derived from it. The star is where a group is joined. Cbz = O=C(OCc1ccccc1)*; CH2F = FC*
# How the values were obtained:
# [1] = tested on: Human fetal neuronal cultures; assay: CYTOQUANT blue cell viability, GB-treated neuronal cultures with K channel blockers; assay type: cell-based; conditions: GB 4 nM; CYTOQUANT blue staining, plate reader
# Method: (§1) FIG. 8A-8B Protection against Granzyme B neurotoxicity by Kv1.3 inhibitors. Human fetal neuronal cultures were treated with GB (4 nM) in the presence or absence of various K channel blockers. (FIG. 8A) Cell viability was determined by staining with CYTOQUANT™ blue and the staining was quantitated by a plate reader. […] (FIG. 8B) Cell viability was determined by staining with trypan blue and the % of cells staining were counted which represent dead cells. A minimum of 500 cells was counted in each well and each treatment was done in triplicate.
# [2] = biological target: Kv1.3 channel (voltage-gated potassium channel) on human fetal neurons / neuronal precursor cells (human); assay: cell-based or functional assay
# [3] = tested on: human fetal neurons; assay: Trypan blue uptake neurotoxicity assay in GrB-treated neuronal cultures; assay type: cell-based
# Method: as §1
# Human fetal neurons were cultured as previously described (35). Briefly, human fetal brain specimens of 12-17 weeks gestation were obtained in accordance with NIH guidelines. The tissues were then triturated after removing the meninges. Cells were then cultured in T75 flasks in opti-MEM with 5% FBS, 0.5% N2 supplement and 1% antibiotics. Neurons were collected by carefully shaking the flask at least 1 month later. Cells were then seeded at 1×10^5/ml in 96 well plates for 1 week before treatment. These cultures contain 70-80% neurons, <5% microglia and the remaining cells are astrocytes as determined by immunostaining for microtubule associated antigen (MAP-2), CD68 and glial fibrillary acidic protein (GFAP) respectively.
# For trypan blue uptake, neuronal cells were seeded at 1×10^5/ml and incubated for 1 week in 96-well plates before treatment. […] The cells were then stained with trypan blue for 5 min, washed with phosphate buffered saline, pH7.4 (PBS) and fixed with 4% paraformaldehyde. Trypan blue positive and negative cells were counted in three pre-determined fields. Approximately 200 cells were counted in each well. Each experiment was done in triplicate wells and mean and SEM were calculated from at least three independent experiments.
# [4] = tested on: Neuronal precursor cells (NPC); assay: Neuronal differentiation of NPC (βIII-tubulin / GFAP immunostaining); assay type: cell-based; conditions: MgTX 10 nM for 7 days in differentiating media
# Method: FIG. 11. Kv1.3 specific blocker enhanced neuronal differentiation in NPC. NPC cultures were treated with (FIGS. 11D-11F) or without (FIGS. 11A-11C) Kv1.3 specific blocker MgTX (10 nM) for 7 days in differentiating media. The cells were then fixed in 4% paraformaldehyde and immunostained with mAb against neuron specific βIII-tubulin (FIGS. 11A, 11D) and polyclonal Ab against astrocyte specific GFAP (FIGS. 11B, 11E), followed by fluorescence-conjugated second Abs. The cells were observed and images were taken under confocal microscopy. […] FIGS. 11C and 11F show the merged images.
# [5] = tested on: Neuronal precursor cells (NPC); assay: Caspase-3 activation in GrB-treated NPC cultures (Western-blot); assay type: cell-based; conditions: for effect on GB-induced caspase-3 activation: GrB 4 nM 24 hours, pretreatment PTX 100 ng/ml, ROCK-I 10 nM or MgTX 10 nM
# [6] = tested on: Primary neurons; assay: Calcium imaging (Fura-2/AM) of cytosolic calcium in neurons; assay type: cell-based
# Method: FIG. 4-4B. disrupts calcium homeostasis in neurons. Primary neurons were exposed to GrB for 30 min before imaging of intracellular calcium using Fura-2AM. (FIG. 4A). Resting levels of cytosolic calcium were increased by treatment with 1.0-100 nM GrB. (FIG. 4B). SDF-1α (10 μM) evoked increases of cytosolic calcium were increased by pre-treatment of neurons with 10 nM GrB. * P<0.001.
# Cytosolic calcium ([Ca^2+]c) was determined using the ratiometric calcium probe Fura-2/AM using methods similar to those previously described (36). Cells were incubated in 2 μM Fura-2/AM for 20 min at 37° C. in media and washed with Locke's Buffer (154 mM NaCl, 3.6 mM NaHCO3, 5.6 mM KCl, 1 mM MgCl2, 5 mM HEPES, 2.3 mM CaCl2, 10 mM glucose; pH 7.4) to remove extracellular Fura-2/AM. Fura-2 loaded cells were placed into a open bath chamber and maintained at 37° C. (Series 20 open perfusion chamber and TC-344B temperature controller; Warner Instruments. Hamden, Conn.). Buffer flowed over the cells at the rate of ˜2 ml/min using a VC-6 perfusion control system with a multi-input manifold that minimized dead space, allowing for a rapid change between buffer and buffer containing drug. Cells were alternatively excited at 340 and 380 nm by a monochrometer and emission was recorded at 510 with software from Intracellular Imaging (Intracellular Imaging Inc., Cincinnati, Ohio.) […] ratios were converted to nM [Ca^2+]c using curve fitting software and calcium reference standards (Molecular Probes).
# [7] = tested on: Human fetal neuronal cultures; assay: Cyclic AMP assay in neuronal cultures; assay type: cell-based; conditions: GrB 1 nM, 0-30 min
# Method: Human fetal neuronal cultures were seeded at 5×10^5/ml in 12 well plates for 1 week before treatment. Cultures were then treated with GrB (1 nM) in Locke's buffer for 0-30 min. After removing the media the cells were treated with 100 μl of 0.1 M HCl for 10 min to achieve cell lysis. The lysate was centrifuged at 600 g for 10 min and the supernatant was used directly for the cyclic AMP assay. Cyclic AMP competitive ELISA kit (ENDOGEN, Rockford, Ill.) was used according to manufacturer's directions.
# [8] = tested on: Kv1.3; assay: Kv1.3 immunostaining in GrB-treated NPC; assay type: cell-based; conditions: GrB 4 nM, 24 hours
# Method: FIG. 9A-9H. […] NPC cultures on cover slips were treated with GrB (4 nM; FIGS. 9B, 9D, 9F, and 9H) for 24 hours or controls without GrB (FIGS. 9A, 9C, 9E, and 9G). The cells were then fixed in 4% paraformaldehyde and immunostained with mAb against nestin (FIGS. 9A-9B) and polyclonal Ab against Kv1.3, followed by fluorescence-conjugated secondary Abs (FIGS. 9C-9D). Nuclei were stained with Hoechst 33342 (Calbiochem, 10 μM; FIGS. 9E-9F). The cells were imaged by confocal microscopy. As shown, more than 98% of the cells were positive for nestin and also moderately stained for Kv1.3 in the control cultures.
# [9] = tested on: Human astrocyte cultures; assay type: cell-based; conditions: recombinant GrB 1-4 nM
# Method: Enriched human fetal astroglia were cultured as previously described. Briefly, human fetal brain specimens of 12-17 weeks gestation were triturated after removal of the meninges. Cells were then cultured in T75 flasks in DMEM with 10% FBS and 1% antibiotics for at least 1 month. After shaking at 180 rpm for 1 h, cells were separated with trypsin/EDTA. Cells were then seeded at 1×10^5/ml in 96 well plates for 1 week before treatment. >95% of these cells were immunostained for GFAP.
# (§2) Recombinant GrB induces toxicity in neurons but not in astroglia. […] We next determined the effect of perform on GrB induced neurotoxicity. We used threshold toxic concentrations of perform (50 ng/ml) for these experiments. […] We next determined if the GrB mediated toxicity could also occur in astrocytes. Human astrocyte cultures were similarly treated with recombinant GrB (dose-1-4 nM) and monitored for neurotoxicity.
# [10] = tested on: Human fetal neuron cultures; assay: GrB neurotoxicity by caspase-3 activation and nuclear fragmentation; assay type: cell-based; conditions: recombinant GrB 0.5 to 4 nM
# Method: Human fetal neuron cultures on cover slips were treated with GrB (1 nM) for 24 h. Caspase-3 and βIII tubulin expression in neurons was determined by immunocytochemistry. Briefly, cells were fixed with 4% paraformaldehyde for 5 min, and then blocked with 3% FBS in PBS for 20 min. Polyclonal caspase-3 antiserum (1:500) and monoclonal anti-BIII tubulin (1 μg/ml; Promega, Madison. WI) antibody were then applied and cover slips incubated overnight at 4° C. After washing with PBS, the cover slips were incubated with secondary antibodies (1:200 Donkey anti-rabbit IgG Alexa Fluor 594 and anti-mouse IgG Alexa Fluor 488, Molecular Probes, Eugene, Oreg.) for 2 h. Hochest 33258 (10 μM) was added at the last half an hour to stain the nucleus. The cells were imaged by confocal microscopy.
# as §2
# [11] = tested on: Kv1.3; assay: Kv1.3 immunostaining in GB-treated neurons; assay type: cell-based, human; conditions: GB 4 nM, 16 hours
# Method: FIG. 7A-7H. Expression of Kv1.3 on neurons and toxicity by Granzyme B. Human fetal neuronal cultures were treated with GB (4 nM; FIGS. 7E-7H) or control with no GB (FIGS. 7A-7D) and immunostained with antisera to beta-tubulin (red; FIGS. 7A and 7E) Kv1.3 (green; FIGS. 7C and 7G) and Hoechst (blue; FIGS. 7B and 7F), 16 hours following treatment. […] FIGS. 7D and 7H show merged images with immunostaining with both antisera and Hoechst.
# Expression of voltage gated channel, Kv1.3, in neurons. We discovered that that similar to T cells small basal levels of Kv1.3 channel were expressed on neurons. […] Similar increases in Kv1.3 immunostaining in neurons were also noted upon treatment with supernatants from activated T cells (FIG. 7A-7H).
# [12] = agent 10 μM added 1 h prior to GrB, trypan blue uptake 48 h later
molecule,measurement,setting,value
rTrtyustoxin: non-specific voltage gated K channel blocker (VFINAKCRGSPECLPKCKEAIGKAAGKCMNGKCKCYP),"protection against GB neurotoxicity (cell viability, optical density)",[1],protective
"margatoxin (MgTX), Kv1.3 specific blocker (from UniProt P40755 1-39) (peptide)","protection of human fetal neurons against GB (4 nM) toxicity, trypan blue staining (% dead cells)",[2],1 to 10 nM
margatoxin (TIINVKCTSPKQCLPPCKAQFGQSAGAKCMNGKCKCYPH) [Margotoxin],concentration with significant protection against GB toxicity,"[3]; GB 4 nM, trypan blue",1 to 10 nM
same,protection against GB toxicity (% trypan blue stained cells),"[3]; GB 4 nM, trypan blue",protected against GB toxicity in a dose responsive manner
same,neuronal differentiation (βIII-tubulin positive cells and processes),[4],increased the number of βIII-tubulin positive cells and processes per cell
same,effect on GB-induced caspase-3 activation,[5],attenuated GB-induced caspase-3 activation
Cc1c(C)c2c(c(C)c1O)CCC(C)(C(=O)O)O2 (stereo not drawn) [trolox],blocking of GrB-induced neurotoxicity,[3]; [12],blocked GrB neurotoxicity
"CCC(C)(C)C(=O)C(=O)N1CCC[C@H]1C(=O)OCCCc1cccnc1 [GPI-1046, 3-(3-pyridyl)-1-propyl (2S)-1-(3,3-dimethyl-1,2-dioxopentyl)-2-pyrrollidinecarboxylate]",blocking of GrB-induced neurotoxicity,[3]; [12],blocked GrB neurotoxicity
pertussis toxin,blocking of GrB-induced neurotoxicity,"[3]; 10 μM pertussis toxin, added 1 h prior to GrB, trypan blue uptake, 48 h",blocked
same,effect on GB-induced caspase-3 activation,[5],attenuated GB-induced caspase-3 activation
MnTMPyP,blocking of GrB-induced neurotoxicity,[3]; [12],significantly blocked the neurotoxicity
"O=C[C@@H](O)[C@@H](O)[C@H](O)[C@H](O)COP(=O)(O)O [Mannose-6-phosphate, D-mannose 6-phosphate]",inhibition of GrB-induced neurotoxicity,"[3]; pretreated with 10 mM mannose-6-phosphate, then GrB 1 nM, trypan blue uptake, 48 h",unable to inhibit GrB-induced neurotoxicity
GrB: 32-kDa serine protease of lymphocyte granules; recombinant GrB used,"SDF-1α-evoked ER calcium release, peak increase","[6]; cultures pre-treated with GrB (10 nM), SDF-1α",1000 nM
same,resting [Ca2+]c,"[6]; higher dose of GrB, within 30 min",four fold
same,resting concentration of [Ca2+]c,"[6]; lowest concentration tested, 1 nM GrB, within 30 min",doubled
same,cAMP levels,[7],significant decreases at 5 min
same,Kv1.3 expression in NPC,[8],significant increase in Kv1.3 expression
same,cell death in astrocyte cultures,[9],No evidence of cell death
same,minimum concentration needed to cause significant neurotoxicity,[10],1 nM
same,Kv1.3 channel expression in neurons,[11],increased expression of Kv1.3 channel in a subpopulation of cells
same,caspase-3 activation in NPC,"[5]; GrB 4 nM, 24 hours",induced caspase-3 activation
dendrotoxin,"protection against GB neurotoxicity (cell viability, optical density)",[1],failed to protect against GB neurotoxicity
COC(=O)C[C@H](NC(=O)[C@H](C)NC(=O)[C@@H](NC(=O)OCc1ccccc1)C(C)C)C(=O)CF [Z-VAD-fmk] (Cbz-Val-Ala-Asp(OMe)-CH2F),blocking of GrB-induced neurotoxicity,[3]; [12],significantly (P<0.05) blocked
"perforin: human perforin, membrane disrupting protein of lymphocyte granules (protein, UniProt P14222 22-555, looked up) Perforin-1: PCHTAARSECKRSHKFVPGAWLAGEGVDVTSLRRSGSFPVDTQRFLRPDGTCTLCENALQEGTLQRLPLALTNWRAQGSGCQRHVTRAKVSSTEAVARDAARSIRNDWKVGLDVTPKPTSNVHVSVAGSHSQAANFAAQKTHQDQYSFSTDTVECRFYSFHVVHTPPLHPDFKRALGDLPHHFNASTQPAYLRLISNYGTHFIRAVELGGRISALTALRTCELALEGLTDNEVEDCLTVEAQVNIGIHGSISAEAKACEEKKKKHKMTASFHQTYRERHSEVVGGHHTSINDLLFGIQAGPEQYSAWVNSLPGSPGLVDYTLEPLHVLLDSQDPRREALRRALSQYLTDRARWRDCSRPCPPGRQKSPRDPCQCVCHGSAVTTQDCCPRQRGLAQLEVTFIQAWGLWGDWFTATDAYVKLFFGGQELRTSTVWDNNNPIWSVRLDFGDVLLATGGPLRLQVWDQDSGRDDDLLGTCDQAPKSGSHEVRCNLNHGHLKFRYHARCLPHLGGGTCLDYVPQMLLGEPPGNRSGAVW",enhancement of GrB neurotoxicity,[3]; perforin 50 ng/ml combined with GrB 1 nM,enhancement was not statistically significant
